We go through 2 substances from patent US20090053220A1, “METHODS AND COMPOSITIONS FOR THE INHIBITION OF HIV INFECTION OF T CELLS” (priority 2006, published 2009).

Assay [1] addresses envelope protein of HIV strain JRCSF (WT) (HIV strain JRCSF) (UniProt P20871). The experiment in a line: cell-based or functional assay.
Assay [2] deals with envelope protein of HIV strain JRCSF with N43D (HIV strain JRCSF) (UniProt P20871). The assay is described as follows: cell-based or functional assay.
Assay [3] concerns the target envelope protein of HIV strain JRCSF with G36D (HIV strain JRCSF) (UniProt P20871). The assay is described as follows: cell-based or functional assay.
In assay [4] the target is envelope protein of HIV strain JRCSF with V38A (HIV strain JRCSF) (UniProt P20871). The experiment in a line: cell-based or functional assay.
Assay [5] relates to patient-derived envelope population KJM (day 1) reporter virus. The class given is cell-based, HIV. As to conditions: KJM D1 virus. An excerpt:
(§1) HIV RNA was extracted from patient serum using QIAamp isolation kits (Qiagen, Hilden. Germany) and used to generate cDNA with random hexamer primers (SuperScript First Strand Synthesis System for RT-PCR, Invitrogen, Carlsbad, Calif.). HIV envelope protein open reading frame sequences were specifically amplified using a nested PCR procedure with outer PCR primers: […]
(§2) which initiate priming 239 bases upstream and 349 bases downstream of the envelope open reading frame, respectively. The inner PCR primers were the same primers used for directional cloning of the envelope sequence populations into the pCI-neo vector, as described in Example 4. The resulting PCR products represent a population of envelope sequences from HIV viruses present in two patient samples, KJM (day 1) and KJM (week 9).
(§3) HIV reporter viruses for purposes of this experiment were constructed from: (1) the JRCSF WT envelope protein vector, (2) the T-20-resistant envelope protein variants G36D, V38A, or N43D generated in Example 4; or (3) the patient derived HIV envelope protein population of vectors from KJM (Day 1) or KJM (Week9) generated in Example 5. The reporter viruses were produced by co-transfecting the human embryonic kidney cell line HEK293FT (Invitrogen, Carlsbad, Calif.) with the envelope vectors described above and an envelope-deficient proviral DNA encoding a luciferase reporter gene. The cells were propagated in Dulbecco's Modified Eagle Medium (Invitrogen, Carlsbad, Calif.) supplemented with 10% fetal bovine serum (Invitrogen, Carlsbad, Calif.). Transfections were performed using Lipofectamine 2000 (Invitrogen, Carlsbad, Calif.). Culture supernatants were harvested 48 hours post-transfection and filtered through a 0.45 micron filter prior to infecting target cells.
(§4) Viral infections were carried out in a human malignant glioma (U87) target cell expressing the human CD4 receptor and the human CCR5 chemokine receptor. Target cells were seeded into 96-well plates at a density of 3000 cells/well in Dulbecco's Modified Eagle Medium (Invitrogen, Carlsbad, Calif.) supplemented with 10% fetal bovine serum (Invitrogen. Carlsbad, Calif.) and cultured for […]. Target cells were then exposed to the virus generated in Example 6 mixed with varying concentrations of the entry inhibitors T-20 or an anti-CD4 MAb in a final volume of 40-80 microliters. Infection was triggered by centrifugation of the 96-well plates at 1200*g for 1.5-2.0 hours at 25° C. (i.e. spinoculation). After spinoculation, culture medium was added to a final volume of […] per well and the infected cultures were incubated for 3 days at 37° C. After 3 days the level of luciferase expressed in target cells was measured using a luciferase reporter gene assay reagent (Promega, Madison, Wis.), as described by the manufacturer.
(§5) Dose-response curves for the inhibition of luciferase expression by entry inhibitors were derived by fitting the luciferase data with a four-parameter logistic using Origin 7 Client software (OriginLab, Northampton, Mass.). Each dose-response experiment comprised a nine point concentration curve plus untreated controls, all assayed in triplicate wells (raw data not shown). For each EC50 determination, the results of three or more independent experiments were used to calculate the average EC50 and standard error values.

The subject of assay [6] is patient-derived envelope population KJM (week 9) reporter virus. In kind it is cell-based, HIV. The following applies: KJM W9 virus.
Description: as §1, §2, §3, §4, §5

In assay [7] the test system is T-20-resistant JRCSF envelope variant V38A reporter virus. In kind it is cell-based, HIV.
Description: (§6) In addition, three single amino acid substitutions, G36D, V38A and N43D, known to confer T-20 resistance for HIV were introduced into the JRCSF open reading frame by site-directed mutagenesis (QuikChange II kit, Stratagene, La Jolla, Calif.), thereby generating three T-20-resistant HIV envelope protein expression vectors called […], V38A and N43D.
as §3, §4, §5

In assay [8] the test system is T-20-resistant JRCSF envelope variant G36D reporter virus. In kind it is cell-based, HIV.
Description: as §6, §3, §4, §5

The test system of assay [9] is T-20-resistant JRCSF envelope variant N43D reporter virus. In kind it is cell-based, HIV.
Description: as §6, §3, §4, §5

Assay [10] deals with JRCSF WT envelope reporter virus. The class given is cell-based, HIV. An excerpt:
A DNA expression vector comprising the envelope protein of HIV strain JRCSF was constructed using a commercially available pCI-neo vector (Promega, Madison, Wis.). JRCSF is a primary isolate obtained from an HIV patient which was deposited with the NIH AIDS Research & Reference Reagent Program (Cat. No. 2708). The JRCSF envelope open reading frame was amplified by standard PCR using the following primers: […]
These primers initiate priming at codon 2 of the envelope open reading frame and immediately downstream of the envelope termination codon, respectively. They contain restriction enzymes recognition sequences suitable for directional cloning into the pCI-neo vector. This JRCSF envelope protein expression vector was used in Example 6 below as the WT control. […]
Viral infections were carried out in a human malignant glioma (U87) target cell expressing the human CD4 receptor and the human CCR5 chemokine receptor. […] After 3 days the level of luciferase expressed in target cells was measured using a luciferase reporter gene assay reagent (Promega, Madison, Wis.), as described by the manufacturer. […]

Where [11] appears, read: average +/- standard error, 4 determinations.

Take T-20 (peptide): the PMI amounted to 98% in assay [1], 96% in assay [2], 99% in assay [3] and 91% in [4]. Further, the values for the Fold Change (EC50MUT/EC50WT JRCSF) in [2], in assay [3] and in [4] were 22 fold, 11 fold and 32 fold, respectively.

Regarding enfuvirtide, the PMI in assay [5] amounted to 99 ± 1.3; in [6] it was 100 ± 0.58; in assay [7] it was 91 ± 8.9; in assay [8] it was 99 ± 1.5; in assay [9], 96 ± 3.4; in assay [10], 98 ± 2.4. Besides, the EC50 (commonly the midpoint of the concentration-response curve) in assay [5] (setting [11]) worked out at 0.0091 ± 0.003 µg/mL; in [6] (setting [11]) it was 0.0085 ± 0.0027 µg/mL; in assay [7] (setting [11]) it was 0.41 ± 0.21 µg/mL; in [8] (setting [11]), 0.14 ± 0.026 µg/mL; in [9] (setting [11]), 0.28 ± 0.08 µg/mL; in assay [10] (setting [11]), 0.013 ± 0.0035 µg/mL. Also, the “Fold Change” value came out at 0.93 in assay [6] (EC50W9/EC50D1), 32 in assay [7] (EC50MUT/EC50WT JRCSF), 11 in assay [8] (EC50MUT/EC50WT JRCSF) and 22 in assay [9] (EC50MUT/EC50WT JRCSF).
